Experimental data from patent US20260191768A1, “PHARMACEUTICAL COMPOSITION CONTAINING HIGH CONCENTRATION OF OPIRANSERIN” (VIVOZON, INC., priority 2022, published 2026).
Counter-ions that a name gives are not always drawn.

What was measured:
Format in all cases: physicochemical
[1] = Solubility measurement of opiranserin hydrochloride according to solvents (HPLC); details: for solubility at 7 days / solubility at 3 h: thermodynamic from solid; for solubility at 7 days: 25° C./7 days
Protocol: An excess amount of opiranserin hydrochloride was added to the solvents shown in Table 1, stirred under the following conditions, centrifuged and filtered, and the filtrate was diluted. The solubility of the drug was measured using high-performance liquid chromatography (HPLC).

[2] = Room temperature stability of dissolved opiranserin hydrochloride; details: for Opiranserin hydrochloride concentration, Initial: prepared at 40° C. for 3 hours
Protocol: Among solvents showing high solubility in Experimental Example 1, the solvents that have no irritation or can minimize irritation when preparing medicines were selected as shown in Table 2. Then, the solubility and short-term room temperature stability of opiranserin hydrochloride according to the concentration content were estimated. Each preparation was prepared by adjusting the solvent according to the concentration, adding an excess amount of opiranserin hydrochloride, and stirring at 40° C. for 3 hours. The preparation was centrifuged, the supernatant was transferred to a glass vial, and stored at room temperature to observe properties and analyze content. Liquid chromatography (HPLC) was used to analyze the content of opiranserin hydrochloride, and sampling was carried out upon completion of preparation and after storage at room temperature for 65 hours.

[3] = Screening of hydrotropes for improving solubility of opiranserin hydrochloride
Protocol: After adding 50 mL of water for injection into a 200 mL beaker, a weight of hydrotrope corresponding to the target content was added thereto and stirred at room temperature to completely dissolve it. Then, a weight of opiranserin hydrochloride corresponding to the target concentration was added and stirred at room temperature to completely dissolve it. If it was not completely dissolved in some solvents, the temperature was raised to 40° C. and additional stirring was carried out. When the added materials were completely dissolved, water for injection was added to the beaker to reach the 100 mL mark and further stirred to ensure that the composition was completely mixed. The prepared compositions were filtered using a 0.2 μm syringe filter and then dispensed into vials for injection.

[4] = Solubility of opiranserin hydrochloride as stated in the description; details: solvent not stated; regarded as "sparingly soluble"
[5] = Solvent 27: 1 w/v % Poloxamer 124
[6] = Solvent 28: 5 w/v % Poloxamer 124
[7] = Solvent 29: 1 w/v % Propylene glycol
[8] = Solvent 30: 5 w/v % Propylene glycol

`CCCCOc1c(OC)cc(C(=O)NCC2(N(C)C)CCOCC2)cc1OC` [Opiranserin hydrochloride, 4-butoxy-N-((4-(dimethylamino)tetrahydro-2H-pyran-4-yl)methyl)-3,5-dimethoxy benzamide] gave a solubility at 7 days ([1]; 1 w/v % Caprylocaproyl polyoxyl 8 glyceride, 25 °C, aqueous with cosolvent or surfactant or cyclodextrin, Solvent 7: 1 w/v % Caprylocaproyl polyoxyl 8 glyceride) of 46.2 mg/mL, a solubility at 7 days ([1]; 1 w/v % Hydroxpropyl-beta-cyclodextrin, 25 °C, aqueous with cosolvent or surfactant or cyclodextrin, Solvent 10: 1 w/v % Hydroxpropyl-beta-cyclodextrin) of 49.2 mg/mL and a solubility at 7 days ([1]; 1 w/v % Macrogol 15 hydroxystearate, 25 °C, aqueous with cosolvent or surfactant or cyclodextrin, Solvent 8: 1 w/v % Macrogol 15 hydroxystearate) of 44 mg/mL. The solubility at 7 days ([1]; 1 w/v % PEG-6 caprylic/capric glyceride, 25 °C, aqueous with cosolvent or surfactant or cyclodextrin, Solvent 16: 1 w/v % PEG-6 caprylic/capric glyceride) was 49 mg/mL, the solubility at 3 h ([1]; 1 w/v % Poloxamer 124, 40 °C, aqueous with cosolvent or surfactant or cyclodextrin, Solvent 21: 1 w/v % Poloxamer 124, 40° C./3 hours) was 72.1 mg/mL and the solubility at 7 days ([1]; 1 w/v % Polyoxyl 35 castor oil, 25 °C, aqueous with cosolvent or surfactant or cyclodextrin, Solvent 6: 1 w/v % Polyoxyl 35 castor oil) was 42.1 mg/mL. For the same molecule, the solubility at 7 days ([1]; 1 w/v % Polysorbate 80, 25 °C, aqueous with cosolvent or surfactant or cyclodextrin, Solvent 9: 1 w/v % Polysorbate 80) was 44.7 mg/mL, the solubility at 3 h ([1]; 1 w/v % Propylene glycol, 40 °C, water, Solvent 23: 1 w/v % Propylene glycol, 40° C./3 hours) was 61.8 mg/mL and the solubility at 7 days ([1]; 1 w/v % Triacetin, 25 °C, water, Solvent 13: 1 w/v % Triacetin) was 49.7 mg/mL. For the same molecule, the solubility at 3 h ([1]; 1 w/v % Triacetin, 40 °C, water, Solvent 19: 1 w/v % Triacetin, 40° C./3 hours) was 78.6 mg/mL, the solubility at 7 days ([1]; 3 w/v % Hydroxpropyl-beta-cyclodextrin, 25 °C, aqueous with cosolvent or surfactant or cyclodextrin, Solvent 11: 3 w/v % Hydroxpropyl-beta-cyclodextrin) was 55.6 mg/mL and the solubility at 7 days ([1]; 3 w/v % PEG-6 caprylic/capric glyceride, 25 °C, aqueous with cosolvent or surfactant or cyclodextrin, Solvent 17: 3 w/v % PEG-6 caprylic/capric glyceride) was 57 mg/mL. For the same molecule, the solubility at 7 days ([1]; 3 w/v % Triacetin, 25 °C, water, Solvent 14: 3 w/v % Triacetin) was 57.1 mg/mL, the solubility at 3 h ([1]; 5 w/v % Poloxamer 124, 40 °C, aqueous with cosolvent or surfactant or cyclodextrin, Solvent 22: 5 w/v % Poloxamer 124, 40° C./3 hours) was 83.8 mg/mL and the solubility at 3 h ([1]; 5 w/v % Propylene glycol, 40 °C, aqueous with cosolvent or surfactant or cyclodextrin, Solvent 24: 5 w/v % Propylene glycol, 40° C./3 hours) was 74 mg/mL. For the same molecule, the solubility at 7 days ([1]; 6 w/v % Hydroxpropyl-beta-cyclodextrin, 25 °C, aqueous with cosolvent or surfactant or cyclodextrin, Solvent 12: 6 w/v % Hydroxpropyl-beta-cyclodextrin) was 63.3 mg/mL, the solubility at 7 days ([1]; 6 w/v % PEG-6 caprylic/capric glyceride, 25 °C, aqueous with cosolvent or surfactant or cyclodextrin, Solvent 18: 6 w/v % PEG-6 caprylic/capric glyceride) was 67.6 mg/mL and the solubility at 7 days ([1]; 6 w/v % Triacetin, 25 °C, aqueous with cosolvent or surfactant or cyclodextrin, Solvent 15: 6 w/v % Triacetin) was 72.7 mg/mL. The solubility at 3 h ([1]; 6 w/v % Triacetin, 40 °C, aqueous with cosolvent or surfactant or cyclodextrin, Solvent 20: 6 w/v % Triacetin, 40° C./3 hours) was about 86 mg/mL, the solubility at 7 days ([1]; 100% Ethanol, 25 °C, organic solvent or mixture, Solvent 2: 100% Ethanol) was 25.1 mg/mL and the solubility at 7 days ([1]; 100% Methanol, 25 °C, organic solvent or mixture, Solvent 3: 100% Methanol) was 36 mg/mL. It also gave a solubility at 7 days ([1]; 100% Polyethylene, 25 °C, organic solvent or mixture, Solvent 5: 100% Polyethylene) of 2.59 mg/mL, a solubility at 7 days ([1]; 100% Propylene glycol, 25 °C, organic solvent or mixture, Solvent 4: 100% Propylene glycol) of 13 mg/mL and a solubility at 7 days ([1]; Purified water, 25 °C, water, Solvent 1: Purified water) of 45.2 mg/mL. The “Opiranserin hydrochloride Solubility” value ([1]; Solvent 20: 6 w/v % Triacetin, 40° C./3 hours) was 86.1 mg/mL, the “Change in properties after storage at room temperature for 65 hours” value (“Change in properties after storage” below) ([2]; Solvent 25: 1 w/v % Triacetin) was “Recrystallization generation” and the “Opiranserin hydrochloride concentration, After storage at room temperature for 65 hours” value ([2]; Solvent 25: 1 w/v % Triacetin) was 44.33 mg/mL. For the same molecule, the “Opiranserin hydrochloride concentration, Initial” value ([2]; Solvent 25: 1 w/v % Triacetin) was 78.6 mg/mL, the “Change in properties after storage” value ([2]; Solvent 26: 6 w/v % Triacetin) was “Recrystallization generation” and the “Opiranserin hydrochloride concentration, After storage at room temperature for 65 hours” value ([2]; Solvent 26: 6 w/v % Triacetin) was 38.1 mg/mL. For the same molecule, the “Change in properties after storage” value ([2]; Solvent 26: 6 w/v % Triacetin, listed as opiranserin hydrochloride) was “recrystallization of needle-shaped structure was generated”, the “Opiranserin hydrochloride concentration, Initial” value ([2]; Solvent 26: 6 w/v % Triacetin) was 86.1 mg/mL and the “Change in properties after storage” value [2, 5] was “Recrystallization generation”. For the same molecule, the “Opiranserin hydrochloride concentration, After storage at room temperature for 65 hours” value [2, 5] was 41.1 mg/mL, the “Opiranserin hydrochloride concentration, Initial” value [2, 5] was 72.1 mg/mL and the “Change in properties after storage” value [2, 6] was “Recrystallization generation”. For the same molecule, the “Opiranserin hydrochloride concentration, After storage at room temperature for 65 hours” value [2, 6] was 42.5 mg/mL, the “Opiranserin hydrochloride concentration, Initial” value [2, 6] was 83.8 mg/mL and the “Change in properties after storage” value [2, 7] was “Recrystallization generation”. For the same molecule, the “Opiranserin hydrochloride concentration, After storage at room temperature for 65 hours” value [2, 7] was 34.8 mg/mL, the “Opiranserin hydrochloride concentration, Initial” value [2, 7] was 61.8 mg/mL and the “Change in properties after storage” value [2, 8] was “Recrystallization generation”. The “Opiranserin hydrochloride concentration, After storage at room temperature for 65 hours” value [2, 8] was 34.8 mg/mL, the “Opiranserin hydrochloride concentration, Initial” value [2, 8] was 74.0 mg/mL and the “Concentration of opiranserin hydrochloride that could be dissolved” value ([3]; sodium benzoate used as a hydrotrope) was “up to 300 mg/mL”. The “Concentration of opiranserin hydrochloride that could be stably dissolved” value ([3]; sodium salicylate used as a hydrotrope) was “up to 100 mg/mL”, the “Concentration of opiranserin hydrochloride that could be stably dissolved” value ([3]; trisodium citrate dihydrate used as a hydrotrope) was “up to 100 mg/mL” and the solubility [4] was 25 mg/mL.
